The values below are quoted from earlier work in patent publication US8772346B2, “Pharmaceutical composition” (Torrent Pharmaceuticals Limited, priority 2005, dated 2014).

Read-outs that look alike come from different tables or passages of the source.

The conditions of this series: HP-β-CD (10% w/v).

As to `CCN(CC)C(=O)/C(C#N)=C/c1cc(O)c(O)c([N+](=O)[O-])c1` [entacapone], the “increase of aqueous solubility of entacapone by complexation with HP-β-CD” value is, setting by setting: (pH 3.0) 12 fold; (pH 5.0) 85 fold.
